Assay results published in US20250275975A1, “Methods of Treating Neuropathies” (Athira Pharma, Inc., priority 2023, published 2025).

What was measured:
STZ DNP rats [1] = experiment: Mechanical allodynia rescue assay (Von Frey paw withdrawal threshold), Example B1; type: in vivo, Sprague Dawley rats; set-up: key to Efficacy: rescue of mechanical allodynia behavior as measured by paw withdrawal threshold: NS indicates treatment did not significantly affect paw withdrawal threshold vs disease control.; + indicates p < 0.05 vs disease control.; ++ indicates p < 0.01 vs disease control.; +++ indicates p < 0.001 vs disease control; conditions: for Efficacy: rescue of mechanical allodynia behavior as measured by paw withdrawal threshold: study day 28 after 14 days of treatment, p vs disease control
Description: Hyperglycemic rats consistently develop neuropathic pain-associated behaviors including mechanical allodynia. Allodynia refers to a type of neuropathic pain characterized by increased sensitivity to stimuli that are not normally painful. Mechanical allodynia is quantified in rats by determination of the force required to induce a withdrawal of the paw and is negatively associated with allodynia such that, the lower the force required to induce paw withdrawal, the greater the pain behavior.
(§1) A series of studies were performed to determine the ability of HGF/MET positive modulator compounds to reduce the mechanical allodynia pain behaviors in hyperglycemic rats. A single dose of STZ (55 mg/kg via intravenous (IV)) was administered to induce a Type I diabetic hyperglycemia in male Sprague Dawley rats. Hyperglycemia was confirmed 4 days after STZ administration, with blood glucose levels above 200 mg/dL considered successful model induction. 14 days after disease induction, test compound treatment was initiated and continued as daily compound administration over the remaining course of the study. Route and dose for each compound were determined by pharmacokinetic and distribution modelling. Control groups included animals with no diabetic induction (Sham control), animals with diabetes but treated only with formulation vehicle (DNP (diabetic peripheral neuropathy) control), and disease animals treated with pregabalin (30 mg/kg via PO), which is known to reduce neuropathic pain behaviors.
(§2) Changes to neuropathic pain behaviors were assessed after 14 days of compound treatment on study day 28. Mechanical allodynia was tested by placing each animal on an elevated wire grid and stimulating the plantar surface of the right rear paw with a series of filaments corresponding to increasing orders of force, reaching a maximum force of 60 grams (Aesthesio manual Von Frey filaments). The force of the filament that causes paw withdrawal was considered the paw withdrawal threshold in grams. Pain sensitivity in response to thermal hyperalgesia was determined by using hot plate method and represented as paw withdrawal latency (PWL). Rats were placed on the hot plate (52.5° C.), and the time taken to show the nocifensive behavior (either licking or jumping) of any of their paws was recorded. Statistical comparison of treatment groups to DNP control groups was performed by one-way ANOVA followed by Dunnett's multiple comparisons test.

STZ DNP rats [2] = experiment: Thermal hyperalgesia rescue assay (hot plate paw withdrawal latency), Example B1; type: in vivo, Sprague Dawley rats; set-up: key to Efficacy: rescue of thermal hyperalgesia behavior as measured by paw withdrawal latency: NS indicates treatment did not significantly affect paw withdrawal latency vs disease control.; + indicates p < 0.05 vs disease control.; ++ indicates p < 0.01 vs disease control.; +++ indicates p < 0.001 vs disease control; conditions: for Efficacy: rescue of thermal hyperalgesia behavior as measured by paw withdrawal latency: study day 28 after 14 days of treatment, hot plate 52.5° C., p vs disease control
Description: as §1, §2

[3] = tested on: neuron-Schwann cell co-cultures; experiment: Sensory neurite extension and myelination in healthy primary dorsal root ganglia cultures; type: cell-based, rat; set-up: key to Significant promotion of Neurite Network Extension of Sensory Neurons / Significant promotion of Myelination of Sensory neurons by Schwann Cells: “NS” indicates the treatment did not have a significant effect; “+” indicates the treatment had a significant effect; conditions: for Significant promotion of Myelination of Sensory neurons by Schwann Cells / Significant promotion of Neurite Network Extension of Sensory Neurons: Healthy cultures, vs vehicle
Description: (§3) To assess the effects of test compound treatment on these structures central to neuropathic pathology, peripheral sensory neurons were modeled using dissociated primary cultures of neurons and Schwann cells collected from fetal rats. Fetal rats were collected from pregnant females after 15 days of gestation, and the dorsal root ganglion was dissociated via trypsin digestion and mechanical disruption. The resulting cells were plated and allowed to grow for 7 days. On day 7 in culture, ascorbic acid at a concentration of 50 μM was added to the culture to promote myelination of sensory neurons by Schwann cells.
To model the effects of Compound 5a in the normal peripheral nervous system, neuron-Schwann cell co-cultures were treated with Compound 5a in combination with low doses of recombinant hepatocyte growth factor (HGF). On day 8 in culture, experimental treatments were added to culture media. These treatments included HGF with or without Compound 5a. Some cultures were treated with the steroid hormone B-estradiol to serve as a positive control. Treatments were applied every other day, and on day 21 in culture the cultures were fixed with ethanol and processed for immunodetection of both microtubule-associate protein 2 (MAP2) to reveal neurons and their neurites as well as myelin-associated glycoprotein (MAG) to reveal Schwann cells and the extent of their myelination of cultured neurites. Cells were counterstained with Hoechst DNA dye to identify individual cells.
(§4) 30 fluorescent images were captured for each treatment group and images were quantified by automated image analysis. Neurite network extension was quantified as the total length of MAP2-positive neurites per cell measured in μm. Myelination by Schwann cells was quantified by the area of overlap between MAP2-positive neurites and MAG-positive myelin wrapping measured in μm^2. Statistical analysis was performed as a one-way ANOVA with Fisher's LSD post-test against either vehicle- or Cisplatin-treated groups respectively.

[4] = tested on: neuron-Schwann cell co-cultures injured with cisplatin; experiment: Sensory neurite extension and myelination in cisplatin-injured primary dorsal root ganglia cultures; type: cell-based, rat; set-up: key to Significant promotion of Neurite Network Extension of Sensory Neurons / Significant promotion of Myelination of Sensory neurons by Schwann Cells: “NS” indicates the treatment did not have a significant effect; “+” indicates the treatment had a significant effect; conditions: for Significant promotion of Myelination of Sensory neurons by Schwann Cells / Significant promotion of Neurite Network Extension of Sensory Neurons: +Cisplatin injury (10 μg/ml, 24 hours), vs Cisplatin-treated group
Description: as §3
To model the effects of neuropathic injury in sensory neurons and associated Schwann cells, cultures were injured with the chemotherapy drug cisplatin. These cultures were prepared identically to those described above. In this system, Compound 5a, HGF, and β-estradiol treatments began on culture day 19. Also on culture day 19, cisplatin (10 μg/ml) was added to the cultures for 24 hours. On culture day 20, cisplatin was removed from the media while test compound treatments were replaced for 24 hours. On day 21 in culture, cells were fixed and processed for immunodetection as described above.
as §4

[5] = Compound 5a 0.1 μM with HGF 0.05 ng/ml
[6] = Compound 5a 0.5 μM with HGF 0.05 ng/ml
[7] = Compound 5a 1 μM with HGF 0.05 ng/ml
[8] = healthy cultures, 0.5 μM Compound 5a with HGF (0.05 ng/ml)
[9] = injured cultures, Compound 5a at 0.1, 0.5, and 1 μM with HGF (0.05 ng/ml)

## CCC(C)CN1CC2N(Cc3ccc(C(F)(F)F)cc3)CCC(=O)N2[C@@H](C)C1=O (stereo partly shown) [Compound 5a]
STZ DNP rats [1]; 0.003 mg/kg IV daily
  Efficacy: rescue of mechanical allodynia behavior as measured by paw withdrawal threshold: NS
STZ DNP rats [1]; 0.015 mg/kg IV daily
  Efficacy: rescue of mechanical allodynia behavior as measured by paw withdrawal threshold: NS
STZ DNP rats [1]; 0.075 mg/kg IV daily
  Efficacy: rescue of mechanical allodynia behavior as measured by paw withdrawal threshold: NS
STZ DNP rats [1]; 0.375 mg/kg IV daily
  Efficacy: rescue of mechanical allodynia behavior as measured by paw withdrawal threshold: ++ (++ indicates p < 0.01 vs disease control.)
STZ DNP rats [1]; 1 mg/kg PO daily
  Efficacy: rescue of mechanical allodynia behavior as measured by paw withdrawal threshold: ++ (++ indicates p < 0.01 vs disease control.)
STZ DNP rats [1]; 2 mg/kg PO daily
  Efficacy: rescue of mechanical allodynia behavior as measured by paw withdrawal threshold: +++ (+++ indicates p < 0.001 vs disease control.)
STZ DNP rats [1]; 10 mg/kg PO daily
  Efficacy: rescue of mechanical allodynia behavior as measured by paw withdrawal threshold: +++ (+++ indicates p < 0.001 vs disease control.)
STZ DNP rats [1]; 20 mg/kg PO daily
  Efficacy: rescue of mechanical allodynia behavior as measured by paw withdrawal threshold: +++ (+++ indicates p < 0.001 vs disease control.)
STZ DNP rats [1]; STZ DNP rats
  rescue of the mechanical allodynia behavior as measured by paw withdrawal threshold: significant rescue
STZ DNP rats [2]; 0.003 mg/kg IV daily
  Efficacy: rescue of thermal hyperalgesia behavior as measured by paw withdrawal latency: + (+ indicates p < 0.05 vs disease control.)
STZ DNP rats [2]; 0.015 mg/kg IV daily
  Efficacy: rescue of thermal hyperalgesia behavior as measured by paw withdrawal latency: NS
STZ DNP rats [2]; 0.075 mg/kg IV daily
  Efficacy: rescue of thermal hyperalgesia behavior as measured by paw withdrawal latency: + (+ indicates p < 0.05 vs disease control.)
STZ DNP rats [2]; 0.375 mg/kg IV daily
  Efficacy: rescue of thermal hyperalgesia behavior as measured by paw withdrawal latency: ++ (++ indicates p < 0.01 vs disease control.)
STZ DNP rats [2]; 1 mg/kg PO daily
  Efficacy: rescue of thermal hyperalgesia behavior as measured by paw withdrawal latency: NS
STZ DNP rats [2]; 2 mg/kg PO daily
  Efficacy: rescue of thermal hyperalgesia behavior as measured by paw withdrawal latency: + (+ indicates p < 0.05 vs disease control.)
STZ DNP rats [2]; 10 mg/kg PO daily
  Efficacy: rescue of thermal hyperalgesia behavior as measured by paw withdrawal latency: +++ (+++ indicates p < 0.001 vs disease control.)
STZ DNP rats [2]; 20 mg/kg PO daily
  Efficacy: rescue of thermal hyperalgesia behavior as measured by paw withdrawal latency: +++ (+++ indicates p < 0.001 vs disease control.)
STZ DNP rats [2]; STZ DNP rats
  rescue of thermal allodynia behavior as measured by paw withdrawal latency: significant rescue
[3]; [5]
  Significant promotion of Myelination of Sensory neurons by Schwann Cells: +
  Significant promotion of Neurite Network Extension of Sensory Neurons: NS
[3]; [6]
  Significant promotion of Myelination of Sensory neurons by Schwann Cells: +
  Significant promotion of Neurite Network Extension of Sensory Neurons: +
[3]; [7]
  Significant promotion of Myelination of Sensory neurons by Schwann Cells: NS
  Significant promotion of Neurite Network Extension of Sensory Neurons: NS
[3]; [8]
  myelination: significant promotion
  neurite network extension: significant promotion
[4]; [5]
  Significant promotion of Myelination of Sensory neurons by Schwann Cells: +
  Significant promotion of Neurite Network Extension of Sensory Neurons: +
[4]; [6]
  Significant promotion of Myelination of Sensory neurons by Schwann Cells: +
  Significant promotion of Neurite Network Extension of Sensory Neurons: +
[4]; [7]
  Significant promotion of Myelination of Sensory neurons by Schwann Cells: +
  Significant promotion of Neurite Network Extension of Sensory Neurons: +
[4]; [9]
  myelination: significantly promoted
  neurite network extension: significantly promoted
